Data taken from patent US5834259A, “Process and composition for preparing D-aspartic acid” (Monsanto Company, priority 1996, dated 1998).

Columns and labels:
Assay type in all cases: biochemical, E. coli K12
[1] = target: T1, L-aspartate-α-decarboxylase (Escherichia coli, UniProt P0A790); assay: 1.0M D/L-aspartate, 100 g/l cells, reaction A (Example 6); conditions: for concentration in supernatant fluid: 1.0M, 100 g/l cells, 37° C.
T1 construct: expressed in transfected cells; host or cells: E. coli W3110 transformed with pIF309 = strain NS3291 (ATCC 98675), whole cells
Protocol: 1.0M D/L-aspartate was tested as a substrate for two enzyme cell loads, 100 g/l cells, referred to here as reaction "A", and 50 g/l cells, referred to here as reaction "B".
133.1 g of D/L-aspartic acid was dissolved in approximately 600 ml deionized H2 O and pH was adjusted to 7.0 with NaOH, using 100 ml of 10N NaOH and a small amount of 1.0N NaOH. The substrate for reaction A was brought to 963 ml with deionized H2 O. The reaction was started with 137 ml cells that were stored in the cold room. For reaction B, the substrate was brought to a volume of 981.5 ml. The reaction was started with […] cells.
Both reactions were carried out in 2 L fermentors at pH 7.0 without constant adjustments and at 37° C. Samples were removed over time, centrifuged and the supernatant fluid was diluted and submitted for D- and L-aspartic acid HPLC analysis.

[2] = target: T1, L-aspartate-α-decarboxylase; assay: Activity towards D/L-glutamate and D/L-alanine, D/L-aspartate as control (Example 8); conditions: for concentration in supernatant fluid / percent remaining: racemate substrate, pH 7.0
Protocol: D/L-aspartate was run as a control.
Substrates were prepared by dissolving solid amino acid racemate in approximately 75 ml deionized H2 O and adjusting the pH to 7.0 with 10N NaOH. The volume was then brought to 100 ml with deionized H2 O. The cells used were stored frozen for about 1 month and then thawed and stored in a refrigerator for about 1 month prior to running the experiments.
The reaction was run the same as described in the prior Examples. Samples of supernatant fluid, approximately 0.20 ml, were removed over time, centrifuged and stored frozen before analysis by HPLC as described in the prior Examples.

[3] = target: T1, L-aspartate-α-decarboxylase; assay: Re-treatment of Example 3 supernatant fluid with fresh cells (Example 4); conditions: 37° C.
Excerpt: In all of the Examples herein, D- and L-aspartic acid isomers were quantified by HPLC using the following precolumn derivatization method. Aspartic acid was converted into diastereomers using ortho-phthalaldehyde and N-acetyl-L-cysteine. Separation of the diastereomers was achieved on a Supelcosil™ LC-18DB, 3μ, 150×4.6 mm column using a mobile phase of A: 20% methanol/80% triethylamine phosphate and B: methanol, and a step gradient as follows: […]
In this Example the supernatant fluid from Example 3 was re-treated with fresh cells. The reaction from Example 3, stopped at 68 hours, was centrifuged for 45 minutes in a GS-3 rotor at 7000 rpm. The supernatant fluid, 990 ml, was separated from the cells. 963 ml of this supernatant fluid was mixed with 137 ml fresh cells and placed in a 2 L fermentor. Bioconversion took place with mixing at 300 rpm, without automatic pH control and at a temperature of 37° C. Samples, approximately 1 ml, were removed over time and analyzed as in Example 3.

[4] = target: T1, L-aspartate-α-decarboxylase; assay: Temperature study, 45° C. (Example 9); conditions: 1.0M, 100 g/l cells
Protocol: 133.1 g (1 mol) of D/L-aspartic acid was dissolved in deionized H2 O and the pH was adjusted to 7.0 with 10N NaOH, approximately 100 ml. Cells, freshly thawed from -80° C., were added to achieve a final concentration of 100 g/l. Three 2 L fermentors were each charged with 963 ml of substrate solution and 137 ml of cells and then heated to 37° C. and 45° C. while mixing at 300 rpm or heated to 50° C. while mixing at 450 rpm. Samples, approximately 1 ml, were removed over time and pH adjusted to 7.0 with either NaOH or HCl. After centrifugation to remove cells, the supernatant fluid was analyzed for both D- and L-aspartic acid.

## N[C@@H](CC(=O)O)C(=O)O [L-Asp, L-aspartic acid]
[1]; 0.0000 hr
  concentration in supernatant fluid: 54.850 mg/mL
[1]; 0.0000 hr, listed as L-aspartate
  concentration in supernatant fluid: 53.6 mg/mL
[1]; 2.0000 hr
  concentration in supernatant fluid: 49.340 mg/mL
[1]; 4.5000 hr
  concentration in supernatant fluid: 50.710 mg/mL
[1]; 7.0000 hr
  concentration in supernatant fluid: 50.230 mg/mL
[1]; 22.500 hr
  concentration in supernatant fluid: 54.490 mg/mL
[1]; 24.000 hr
  concentration in supernatant fluid: 50.780 mg/mL
[1]; 31.000 hr
  concentration in supernatant fluid: 51.450 mg/mL
[1]; 37.500 hr
  concentration in supernatant fluid: 53.850 mg/mL
[1]; 47.000 hr
  concentration in supernatant fluid: 52.370 mg/mL
[1]; 50.500 hr
  concentration in supernatant fluid: 51.080 mg/mL
[1]; 53.800 hr
  concentration in supernatant fluid: 46.500 mg/mL
[1]; 58.000 hr
  concentration in supernatant fluid: 50.040 mg/mL
[1]; 70.000 hr
  concentration in supernatant fluid: 52.400 mg/mL
[1]; 72.000 hr
  concentration in supernatant fluid: 50.430 mg/mL
[1]; 72.000 hr, listed as L-aspartate
  concentration in supernatant fluid: 5.39 mg/mL
[1]; after 72.0 hours, 1.0M substrate
  reduction of L-aspartate: 90%
[2]
  substrate specificity of the enzyme: the only substrate for the enzyme
[2]; 0 hr
  concentration in supernatant fluid: 26.810 mg/mL
[2]; 3.5 hr
  concentration in supernatant fluid: 14.050 mg/mL
  percent remaining: 52.406%
[2]; 8.5 hr
  concentration in supernatant fluid: 12.660 mg/mL
  percent remaining: 47.221%
[2]; 24 hr
  concentration in supernatant fluid: 9.4700 mg/mL
  percent remaining: 35.323%
[2]; 55 hr
  concentration in supernatant fluid: 0.3300 mg/mL
[2]; 55 hr, 3300 min
  percent remaining: 1.2309%
[2]; 55 hr, listed as L-aspartic acid, 3300 min
  percent remaining: 1.23%
[3]; 0.0000 hr
  concentration in supernatant fluid: 0.43 mg/mL
[3]; 0.0000 hr, listed as L-aspartic acid
  concentration in supernatant fluid: 0.43 mg/mL
[3]; 2.7500 hr
  concentration in supernatant fluid: 0.11 mg/mL
  percent remaining: 25.581%
[3]; 13.500 hr
  concentration in supernatant fluid: 0.09 mg/mL
  percent remaining: 20.930%
[3]; 15.000 hr
  concentration in supernatant fluid: 0.08 mg/mL
  percent remaining: 18.605%
[3]; 19.500 hr
  concentration in supernatant fluid: 0.09 mg/mL
  percent remaining: 20.930%
[3]; 23.500 hr
  concentration in supernatant fluid: 0.07 mg/mL
  percent remaining: 16.279%
[3]; 23.500 hr, listed as L-aspartic acid
  concentration in supernatant fluid: 0.07 mg/mL
[3]; 39.000 hr
  concentration in supernatant fluid: 0.1 mg/mL
  percent remaining: 23.256%
[3]; 47.000 hr
  concentration in supernatant fluid: 0.16 mg/mL
  percent remaining: 37.209%
[3]; 51.750 hr
  concentration in supernatant fluid: 0.23 mg/mL
  percent remaining: 53.488%
[3]; 68.500 hr
  concentration in supernatant fluid: 0.55 mg/mL
  percent remaining: 127.91%
[3]; 68.500 hr, listed as L-aspartic acid
  concentration in supernatant fluid: 0.55 mg/mL
[4]; 0.000 hr
  concentration in supernatant fluid: 54.410 mg/mL
[4]; 2.5000 hr
  percent remaining: 92.079%
[4]; 4.0000 hr
  concentration in supernatant fluid: 47.110 mg/mL
  percent remaining: 86.583%
[4]; 6.0000 hr
  concentration in supernatant fluid: 43.130 mg/mL
  percent remaining: 79.269%
[4]; 8.0000 hr
  concentration in supernatant fluid: 39.310 mg/mL
  percent remaining: 72.248%
[4]; 10.000 hr
  concentration in supernatant fluid: 36.800 mg/mL
  percent remaining: 67.635%
[4]; 12.000 hr
  concentration in supernatant fluid: 34.540 mg/mL
  percent remaining: 63.481%
[4]; 20.000 hr
  concentration in supernatant fluid: 24.690 mg/mL
  percent remaining: 45.378%
[4]; 24.000 hr
  concentration in supernatant fluid: 23.210 mg/mL
  percent remaining: 42.658%
[4]; 29.000 hr
  concentration in supernatant fluid: 21.700 mg/mL
  percent remaining: 39.882%
[4]; 34.000 hr
  concentration in supernatant fluid: 19.310 mg/mL
  percent remaining: 35.490%
[4]; 44.000 hr
  concentration in supernatant fluid: 15.800 mg/mL
  percent remaining: 29.039%
[4]; 48.000 hr
  concentration in supernatant fluid: 16.700 mg/mL
  percent remaining: 30.822%
[4]; 68.000 hr
  concentration in supernatant fluid: 16.050 mg/mL
  percent remaining: 29.498%
[4]; 92.000 hr
  concentration in supernatant fluid: 13.370 mg/mL
  percent remaining: 24.573%
